US7553864B2, “Compounds for the treatment of inflammatory disorders and microbial diseases” (Schering Corporation, priority 2005, dated 2009)

Tested on: LpxC enzyme
Experiment: LpxC enzyme assay (RapidFire high-throughput mass spectrometry)
Type: biochemical
Procedure: The standard LpxC assay consists of 0.2 nM LpxC enzyme, 1.0 μM UDP-3-O—(R-3-hydroxymyristoyl)-N-acetylglucosamine, and test compound, in assay buffer and 2% DMSO. Assay buffer is comprised of 25 mM HEPES, pH 7.3, 150 mM NaCl, 2.0 mM DTT, and 0.01% BSA. The enzyme reaction is carried out in a 96-well assay plate, in a final volume of 102 μL. Solutions of test compounds are prepared in 100% DMSO. Reaction additions, in order, are (1) 2.0 μL compound solution, (2) 80 μL of assay buffer, (3) 10 μL of 10 μM UDP-3-O—(R-3-hydroxymyristoyl)-N-acetylglucosamine (in assay buffer) and, (4) 10 μL of LpxC enzyme (20 nM in assay buffer) to initiate the reaction. In positive control reactions, addition (1) has 2.0 μL of 100% DMSO (without compound); these reactions are used as the total signal (TSB) value. Reactions are incubated at room temperature for 60 minutes when 10 μL of 1 N HCl is added to stop the reaction. The plate is shaken by hand for 10 seconds to ensure complete quenching. Assay plates are sealed with foil tape, and stored at −80° C. for 24-48 hr prior to analysis.
The concentrations of substrate and product in the reaction mixtures are determined with BioTrove's proprietary RapidFire™ high-throughput mass spectrometry (HTMS). Assay mixtures are partially purified with reverse phase chromatography, where they are washed with water containing 5 mM ammonium formate and eluted onto the mass spectrometer in 80% acetonitrile, 20% water, and 5 mM ammonium formate. The mass spectrometry peak areas of the substrate and product are measured to determine the concentration of these analytes. The assay signal is the percentage of substrate that is converted to product. Percent inhibition, % I, in test samples is determined from the following equation: […]

[1] = concentration 0.10 (unit not given)
[2] = concentration 0.20 (unit not given)
[3] = concentration 0.39 (unit not given)
[4] = concentration 0.78 (unit not given)
[5] = concentration 1.56 (unit not given)
[6] = concentration 3.13 (unit not given)
[7] = concentration 6.25 (unit not given)
[8] = concentration 12.50 (unit not given)
[9] = concentration 25 (unit not given)
[10] = concentration 50 (unit not given)

Measured: LpxC enzyme assay rating (% inhibition at indicated concentrations)

CN(C)CCCOc1ccc(NC(=O)[C@H](O)[C@@H](O)C(=O)N2CCCC2)cc1 [Compound 74]
B (10-30% inhibition): [1] | [5] | [6]
C (less than 10% inhibition): [2] | [3] | [4] | [7] | [8] | [9] | [10]

CNC(=O)[C@H](O)[C@@H](O)C(=O)Nc1ccc(-c2ccccc2)cc1 [Compound 27]
C (less than 10% inhibition): [1] | [2] | [3] | [4] | [5]
B (10-30% inhibition): [6] | [7] | [8] | [9] | [10]

CN(C)C(=O)[C@H](O)[C@@H](O)C(=O)Nc1ccc(N2CCOCC2)cc1 [Compound 54]
C (less than 10% inhibition): [1] | [2] | [3] | [4] | [5] | [7] | [8] | [9] | [10]
B (10-30% inhibition): [6]

CN(C)C(=O)[C@H](O)[C@@H](O)C(=O)N1CCN(c2ccc(-c3ccccc3)cc2)CC1 [Compound 47]
C (less than 10% inhibition): [3] | [5] | [9]
B (10-30% inhibition): [1] | [2] | [4] | [6] | [7] | [8] | [10]

CNC(=O)[C@H](O)[C@@H](O)C(=O)Nc1ccc(N2CCN(C)CC2)cc1 [Compound 38]
B (10-30% inhibition): [10]
C (less than 10% inhibition): [1] | [2] | [3] | [4] | [5] | [6] | [7] | [8] | [9]

CN(C)C(=O)[C@H](O)[C@@H](O)C(=O)N(C)c1ccccc1C#Cc1ccccc1 [Compound 103]
B (10-30% inhibition): [3] | [4] | [5] | [6] | [8]
C (less than 10% inhibition): [1] | [2] | [7] | [9]

CNC(=O)[C@H](O)[C@@H](O)C(=O)Nc1ccc(C#Cc2ccccc2)cc1 [Compound 25]
C (less than 10% inhibition): [1] | [2] | [3] | [4] | [5] | [6] | [7] | [9] | [10]
B (10-30% inhibition): [8]

CN(C)C(=O)[C@H](O)[C@@H](O)C(=O)N1CCC(c2ccc(C(F)(F)F)cc2)CC1 [Compound 51]
C (less than 10% inhibition): [2] | [3] | [4] | [6] | [7] | [8]
B (10-30% inhibition): [1] | [5] | [9] | [10]

CCCCc1ccc(NC(=O)[C@H](O)[C@@H](O)C(=O)N2CCCC2)cc1 [Compound 66]
B (10-30% inhibition): [3] | [5] | [6] | [7] | [8] | [10]
A (greater than 30% inhibition): [9]
C (less than 10% inhibition): [1] | [2] | [4]

CCCCc1ccc(NC(=O)[C@H](O)[C@@H](O)C(=O)NC)cc1 [Compound 32]
B (10-30% inhibition): [1] | [2] | [3] | [4] | [6] | [8] | [9] | [10]
C (less than 10% inhibition): [5] | [7]
